pIC50: −log10 of the molar value.
Test system: 252836-082-R-J2-PDC tumor spheroids, viability
Test: Anticancer human tumor 252836-082-R-J2-PDC patient-derived head and neck squamous cell carcinoma cell line growth inhibition [PI3K]
Conditions: spheroids with HUVEC and MSC; for pIC50: curve of first compound; for viability, T/C: stronger effect = lower value
Procedure, shortened: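 Spheroid viability read-out. Co-cultures contained the tumor line plus HUVEC and human MSCs. Each agent was paired with a PI3K inhibitor (inavolisib, alpelisib, duvelisib, copanlisib) across half-log dilutions starting at clinical Cmax, or at 10 microM when Cmax was unknown.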

[1] = second compound 0.0316 µM, first compound 0.0316 µM
[2] = second compound 0.0316 µM, first compound 0.1 µM
[3] = second compound 0.0316 µM, first compound 0.316 µM
[4] = second compound 0.0316 µM, first compound 1 µM
[5] = second compound 0.0316 µM, first compound 3.16 µM
[6] = second compound 0.0316 µM, first compound 10 µM
[7] = second compound 0.1 µM, first compound 0.0316 µM
[8] = second compound 0.1 µM, first compound 0.1 µM
[9] = second compound 0.1 µM, first compound 0.316 µM
[10] = second compound 0.1 µM, first compound 1 µM
[11] = second compound 0.1 µM, first compound 3.16 µM
[12] = second compound 0.1 µM, first compound 10 µM
[13] = second compound 0.316 µM, first compound 0.0316 µM
[14] = second compound 0.316 µM, first compound 0.1 µM
[15] = second compound 0.316 µM, first compound 0.316 µM
[16] = second compound 0.316 µM, first compound 1 µM
[17] = second compound 0.316 µM, first compound 3.16 µM
[18] = second compound 0.316 µM, first compound 10 µM
[19] = second compound 1 µM, first compound 0.0316 µM
[20] = second compound 1 µM, first compound 0.1 µM
[21] = second compound 1 µM, first compound 0.316 µM
[22] = second compound 1 µM, first compound 1 µM
[23] = second compound 1 µM, first compound 3.16 µM
[24] = second compound 1 µM, first compound 10 µM
[25] = second compound 3.16 µM, first compound 0.0316 µM
[26] = second compound 3.16 µM, first compound 0.1 µM
[27] = second compound 3.16 µM, first compound 0.316 µM
[28] = second compound 3.16 µM, first compound 1 µM
[29] = second compound 3.16 µM, first compound 3.16 µM
[30] = second compound 3.16 µM, first compound 10 µM
[31] = second compound 10 µM, first compound 0.0316 µM
[32] = second compound 10 µM, first compound 0.1 µM
[33] = second compound 10 µM, first compound 0.316 µM
[34] = second compound 10 µM, first compound 1 µM
[35] = second compound 10 µM, first compound 3.16 µM
[36] = second compound 10 µM, first compound 10 µM
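Note: spheroids exposed to agents for seven days before readout.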
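Throughout, for viability, T/C: percent of vehicle DMSO control viability so 100% = untreated growth.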

C#Cc1c(F)ccc2cc(O)cc(-c3ncc4c(N5CC6CCC(C5)N6)nc(OCC56CCCN5CC(F)C6)nc4c3F)c12 (stereo unspecified) + CC(Nc1ncnc2nc[nH]c12)c1cc2cccc(Cl)c2c(=O)n1-c1ccccc1
pIC50 (second compound 0.0316 µM): < 5.00 | pIC50 (second compound 0.1 µM): < 5.00 | pIC50 (second compound 0.316 µM): < 5.00 | pIC50 (second compound 1 µM): < 5.00 | pIC50 (second compound 3.16 µM): < 5.00 | pIC50 (second compound 10 µM): 5.47 | viability, T/C [1]: 90% | viability, T/C [2]: 78.4% | viability, T/C [3]: 82.8% | viability, T/C [4]: 86.4% | viability, T/C [5]: 82% | viability, T/C [6]: 63.6% | viability, T/C [7]: 90.8% | viability, T/C [8]: 87% | viability, T/C [9]: 90.8% | viability, T/C [10]: 97.7% | viability, T/C [11]: 82.6% | viability, T/C [12]: 64.8% | viability, T/C [13]: 96.1% | viability, T/C [14]: 92.9% | viability, T/C [15]: 90.1% | viability, T/C [16]: 87.5% | viability, T/C [17]: 73.5% | viability, T/C [18]: 65.4% | viability, T/C [19]: 83.3% | viability, T/C [20]: 75.7% | viability, T/C [21]: 88.6% | viability, T/C [22]: 78.4% | viability, T/C [23]: 88.4% | viability, T/C [24]: 66.8% | viability, T/C [25]: 84.7% | viability, T/C [26]: 67.6% | viability, T/C [27]: 73.7% | viability, T/C [28]: 75% | viability, T/C [29]: 69% | viability, T/C [30]: 62.6% | viability, T/C [31]: 54.5% | viability, T/C [32]: 58.2% | viability, T/C [33]: 53.9% | viability, T/C [34]: 49.4% | viability, T/C [35]: 55.6% | viability, T/C [36]: 44.9%

Cn1ncnc1[C@H]1c2n[nH]c(=O)c3cc(F)cc(c23)N[C@@H]1c1ccc(F)cc1 + Cc1nc(NC(=O)N2CCCC2C(N)=O)sc1-c1ccnc(C(C)(C)C(F)(F)F)c1
pIC50 (second compound 0.0316 µM): < 7.00 | pIC50 (second compound 0.1 µM): < 7.00 | pIC50 (second compound 0.316 µM): < 7.00 | pIC50 (second compound 1 µM): 7.76 | pIC50 (second compound 3.16 µM): > 9.50 | pIC50 (second compound 10 µM): > 9.50 | viability, T/C (second compound 0.0316 µM, first compound 0.000316 µM): 88.5% | viability, T/C (second compound 0.0316 µM, first compound 0.001 µM): 94.1% | viability, T/C (second compound 0.0316 µM, first compound 0.00316 µM): 96.9% | viability, T/C (second compound 0.0316 µM, first compound 0.01 µM): 76.2% | viability, T/C [1]: 75.2% | viability, T/C [2]: 58.5% | viability, T/C (second compound 0.1 µM, first compound 0.000316 µM): 80.2% | viability, T/C (second compound 0.1 µM, first compound 0.001 µM): 71.3% | viability, T/C (second compound 0.1 µM, first compound 0.00316 µM): 83.4% | viability, T/C (second compound 0.1 µM, first compound 0.01 µM): 65.6% | viability, T/C [7]: 78.5% | viability, T/C [8]: 58.4% | viability, T/C (second compound 0.316 µM, first compound 0.000316 µM): 62.3% | viability, T/C (second compound 0.316 µM, first compound 0.001 µM): 70.8% | viability, T/C (second compound 0.316 µM, first compound 0.00316 µM): 66.6% | viability, T/C (second compound 0.316 µM, first compound 0.01 µM): 57.6% | viability, T/C [13]: 55.6% | viability, T/C [14]: 50.6% | viability, T/C (second compound 1 µM, first compound 0.000316 µM): 58.5% | viability, T/C (second compound 1 µM, first compound 0.001 µM): 59.2% | viability, T/C (second compound 1 µM, first compound 0.00316 µM): 53.9% | viability, T/C (second compound 1 µM, first compound 0.01 µM): 61.7% | viability, T/C [19]: 40.6% | viability, T/C [20]: 32.4% | viability, T/C (second compound 3.16 µM, first compound 0.000316 µM): 42.7% | viability, T/C (second compound 3.16 µM, first compound 0.001 µM): 48.8% | viability, T/C (second compound 3.16 µM, first compound 0.00316 µM): 39% | viability, T/C (second compound 3.16 µM, first compound 0.01 µM): 44.7% | viability, T/C [25]: 40.4% | viability, T/C [26]: 23.4% | viability, T/C (second compound 10 µM, first compound 0.000316 µM): 31.8% | viability, T/C (second compound 10 µM, first compound 0.001 µM): 38.5% | viability, T/C (second compound 10 µM, first compound 0.00316 µM): 33.6% | viability, T/C (second compound 10 µM, first compound 0.01 µM): 26.5% | viability, T/C [31]: 21.9% | viability, T/C [32]: 21.6%

C[C@@H](NC(=O)c1ncnc(N)c1Cl)c1ncc(C(=O)Nc2cc(C(F)(F)F)c(Cl)cn2)s1 + CC(Nc1ncnc2nc[nH]c12)c1cc2cccc(Cl)c2c(=O)n1-c1ccccc1
pIC50 (second compound 0.0316 µM): < 5.00 | pIC50 (second compound 0.1 µM): < 5.00 | pIC50 (second compound 0.316 µM): < 5.00 | pIC50 (second compound 1 µM): < 5.00 | pIC50 (second compound 3.16 µM): < 5.00 | pIC50 (second compound 10 µM): < 5.00 | viability, T/C [1]: 109% | viability, T/C [2]: 97.1% | viability, T/C [3]: 100% | viability, T/C [4]: 105% | viability, T/C [5]: 103% | viability, T/C [6]: 74% | viability, T/C [7]: 96.3% | viability, T/C [8]: 94.7% | viability, T/C [9]: 86.7% | viability, T/C [10]: 92.1% | viability, T/C [11]: 94.5% | viability, T/C [12]: 82.3% | viability, T/C [13]: 90.1% | viability, T/C [14]: 89.7% | viability, T/C [15]: 98.5% | viability, T/C [16]: 99.4% | viability, T/C [17]: 94.3% | viability, T/C [18]: 86.5% | viability, T/C [19]: 96.8% | viability, T/C [20]: 89.9% | viability, T/C [21]: 90.7% | viability, T/C [22]: 92.7% | viability, T/C [23]: 97.8% | viability, T/C [24]: 88.6% | viability, T/C [25]: 73.5% | viability, T/C [26]: 84.5% | viability, T/C [27]: 89.5% | viability, T/C [28]: 93.1% | viability, T/C [29]: 72.7% | viability, T/C [30]: 70.1% | viability, T/C [31]: 70.8% | viability, T/C [32]: 69% | viability, T/C [33]: 55.5% | viability, T/C [34]: 64.5% | viability, T/C [35]: 72.1% | viability, T/C [36]: 65.4%
